{
  "source": "patent US10800806B2",
  "about": "“Sterol derivatives and use thereof for treating diseases involving transformed astrocyte cells or for treating malignant haemopathies” (BETA INNOV, priority 2012, dated 2020)",
  "key": {"liver cells": {"test_system": "liver cells", "experiment": "Toxicity in vitro on primary cultures of liver cells", "assay_type": "cell-based, human", "conditions": "30 μM, at least 30 days of treatment", "procedure": "Of human origin, they were obtained from ScienCell, USA (ref. 50200) as was the culture medium (ref. 5201), which contains 10% (v/v) FCS. The doubling time of these cells is 24 h. • Renal cells\n(§1) The same methods are used for both cases. For the activity, the anti-GBM potential of the test compounds is used, and the toxicity, is tested on normal cells of human origin maintained “in vitro”.\n(§2) The cells used are liver cells (ScienCell, USA, ref. 50200), kidney cells (ScienCell, USA, ref. 4120), skeletal muscle cells (ScienCell, USA, ref. 3500) and cardiac cells (ScienCell, USA, ref. 6300), of human origin, mentioned above (section II, A)."}, "cardiac cells": {"test_system": "cardiac cells", "experiment": "Toxicity in vitro on primary cultures of cardiac cells", "assay_type": "cell-based, human", "conditions": "30 μM, at least 30 days of treatment", "procedure": "These cells, of human origin, were obtained from ScienCell, USA (ref. 6300) as was the culture medium, which contains 10% (v/v) FCS. The doubling time is 72 h. • Skeletal muscle cells\nas §1, §2"}, "[1]": {"test_system": "normal (non-cancerous) human astrocytes", "experiment": "Toxicity in vitro on primary cultures of normal human astrocytes", "assay_type": "cell-based", "conditions": "30 μM, after 30 days of treatment", "procedure": "The astrocyte cells of human origin used were obtained from ScienCell, USA (ref. 1800) as well as their culture medium, made up of basic medium containing 2% (v/v) FCS serum (ref. 0010), astrocyte growth proteins (AGS, ref. 1852) and a solution of penicillin/streptomycin (ref. 0503). The doubling time of these human astrocytes is 96 h. • Hepatic cells\nas §1\nThe cells used are cells of human origin (ScienCell, USA, ref. 1800), mentioned above (section II, A).\nThe astrocyte type is validated by the presence of GFAP, the standard marker of normal astrocytes (FIG. 11; magnification×200)."}, "[2]": {"test_system": "human glioblastoma lines (GBM, line U-87 MG)", "experiment": "Anti-GBM activity in vitro on cultures of human U87-MG cells, cell aggregates (CA)", "assay_type": "cell-based", "procedure": "Plastic flat-bottomed 96-well culture plates (NUNC, USA) treated for cell culture (Sigma-Aldrich, ref. 114754) are used; 1500 cells are seeded per well in 200 μl of culture medium. At the time of treatment, 100 μl of pure culture medium, 100 μl of culture medium containing ethanol, or liposomes, or 100 μl of culture medium containing the active ingredients are added per well; the final volume of the culture medium, after treatment, is therefore 300 μl for all the wells.\nThe human glioblastoma lines (GBM, line U-87 MG) and their culture medium (Eagle's Minimum Essential Medium or EMEM) were obtained from ATCC (USA, ref. ATCC-HTB-14). Culture of the cells is started and maintained according to the recommendations of the ATCC. These lines are commonly used “in vitro” and “in vivo” for testing anti-GBM potential. The doubling time of these lines is 16 h.\nThe active ingredients are either dissolved in absolute ethanol (AnalaR, NORMAPUR, VWR, France) or in the form of a liposomal solution, such as 10 μl of the stock solutions diluted in 990 μl and then added to the culture wells ([…] medium per well BI-GBM: 300 μl).\nWhen the active ingredients are in ethanolic solution, the culture medium contains […] ethanol (v/v).\nBriefly, the compounds to be tested, namely the compounds according to the invention (active ingredients) or 7β-OHCH—C3-ester (a derivative of 7beta-hydroxysterol esterified in position 3 with an oleate group, the synthesis of which is described by Rakotoarivelo et al. (18) and used as control), soya phosphatidylcholine (Sigma) as well as cholesteryl-3-sulphate (Sigma) are taken from their stock solutions prepared from dichloroethane in the case of the active ingredients and the 7β-OHCH—C3-ester, a chloroform:methanol mixture (9:1, v/v) in the case of phosphatidylcholine and chloroform in the case of cholesteryl-3-sulphate. The molar ratios are 1 M/0.1 M/0.25 M for phosphatidylcholine, cholesteryl-3-sulphate and the 7β-OHCH—C3-ester and the active ingredients respectively.\nAfter evaporation, a solution of PBS saline, without Ca^2+ and Mg^2+, pH7.2 (BioRad) is added to the dry compound. The volume of buffer and the mass of the products are adjusted so that 20 or 10 μl of liposomes added to 90 μl of culture medium gives the desired final concentrations. The liposomes are formed by the extrusion technique with Liposofast (Sodexim, SA Muizon, France). The solution is passed through polycarbonate filtration membranes (100 nm) 41 times. The liposomes are sterilized by filtration on […] Millipore membranes.\nFor example, in the case of the cultures in 96-well plates and as a function of the magnification of the microscope used (objectives×10 or ×20, oculars×10), a photograph taken represents a field of view with a diameter equal to 1/5 of the diameter of a well. Therefore the total number of cells in a well is equal to […] the number of cells per photograph. This technique was compared with a standard technique (trypsinization of the cell layer, centrifugation of the cells, suspension of the cells in physiological saline solution and counting with a THOMA cell) in the case of the C6 cells. The results obtained are identical for both methods.\nThe culture medium is withdrawn from each well and 50 μl of Laemmli buffer (0.1 ml of Tris, 0.8 ml of glycerol, 1.6 mL of 10% SDS, 8 ml q.s.f ultrapure water) is added per well.\nThis test makes it possible to detect the cellular respiration, especially the mitochondrial respiration. The stock solution of tetrazolium salt MTT (3-(4,5-dimethylthiazol-2-yl)-2,5-diphenyl tetrazolium bromide, Sigma-Aldrich, USA, ref. M5655) is prepared with 10 mg of MIT/ml of PBS buffer (phosphate-buffered saline, SIGMA, ref. D 1408). This solution is added directly to the culture medium in each well; the final concentration of MTT is 25 μg/ml. The plate is then incubated at 37° C. for at least 1 h. […]"}, "skeletal muscle cells": {"test_system": "skeletal muscle cells", "experiment": "Toxicity in vitro on primary cultures of skeletal muscle cells", "assay_type": "cell-based, human", "conditions": "30 μM, at least 30 days of treatment", "procedure": "Of human origin, they were obtained from ScienCell, USA (ref. 3500) as was the culture medium (ref. 3501), which contains 10% (v/v) FCS. The doubling time for these cells is 72 h.\nas §1, §2"}, "kidney cells": {"test_system": "kidney cells", "experiment": "Toxicity in vitro on primary cultures of kidney cells", "assay_type": "cell-based, human", "conditions": "30 μM, at least 30 days of treatment", "procedure": "These cells, of human origin, were obtained from ScienCell, USA (ref. 4120) as was the culture medium (ref. 4101), which contains 10% (v/v) FCS. The doubling time is 96 h. • Cardiac cells\nas §1, §2"}},
  "data": [
    {"smiles": "CC(C)CCCC(C)C1CCC2C3C(OC(=O)OC(C)(C)C)C=C4CC(OC(=O)C5COC(C)(C)O5)CCC4(C)C3CCC12C", "note": "(stereo not drawn) [Molecule 2.a, 7-((tert-butoxycarbonyl)oxy)-10,13-dimethyl-17-(6-methylheptan-2-yl)-2,3,4,7,8,9,10,11,12,13,14,15,16,17-tetradecahydro-1H-cyclopenta[a]phenanthren-3-yl 2,2-dimethyl-1,3-dioxolane-4-carboxylate]", "values": [
      {"measurement": "toxicity", "setting": "liver cells; liposomal form", "result": "not toxic"},
      {"measurement": "toxicity", "setting": "cardiac cells; liposomal form", "result": "not toxic"},
      {"measurement": "toxicity", "setting": "[1]; liposomal form", "result": "not toxic"},
      {"measurement": "presence of GBM cells (CA)", "setting": "[2]; 15 μM, liposomal form, 15 days of treatment", "result": "zero"},
      {"measurement": "cellular respiration before cell death", "setting": "[2]; liposomal form", "result": "cellular respiration increases before cell death"},
      {"measurement": "MTT/cell relative to the controls", "setting": "[2]; liposomal form, 8 days of treatment", "result": 140, "unit": "%"},
      {"measurement": "cell multiplication after replacing the medium with fresh drug-free medium", "setting": "[2]; liposomal form, medium replaced on the 13th day of treatment", "result": "no cell multiplication is observed"},
      {"measurement": "toxicity", "setting": "skeletal muscle cells; liposomal form", "result": "not toxic"},
      {"measurement": "toxicity", "setting": "kidney cells; liposomal form", "result": "not toxic"}
    ]},
    {"smiles": "CC(=O)OC1C=C2CC(OC(=O)C3COC(C)(C)O3)CCC2(C)C2CCC3(C)C(C(C)CCCC(C)C)CCC3C12", "note": "(stereo not drawn) [Molecule 2.b, 7-acetoxy-10,13-dimethyl-17-(6-methylheptan-2-yl)-2,3,4,7,8,9,10,11,12,13,14,15,16,17-tetradecahydro-1H-cyclopenta[a]phenanthren-3-yl 2,2-dimethyl-1,3-dioxolane-4-carboxylate]", "values": [
      {"measurement": "toxicity", "setting": "liver cells; ethanolic form", "result": "not toxic"},
      {"measurement": "toxicity", "setting": "cardiac cells; ethanolic form", "result": "not toxic"},
      {"measurement": "toxicity", "setting": "[1]; ethanolic form", "result": "not toxic"},
      {"measurement": "remaining GBM cells", "setting": "[2]; 30 μM, ethanolic form, even after removing the active ingredient", "result": "no GBM cell remains"},
      {"measurement": "cellular respiration before cell death", "setting": "[2]; ethanolic form", "result": "cellular respiration increases before cell death"},
      {"measurement": "reduction of the level of proteins relative to the untreated control cells", "setting": "[2]; ethanolic form", "result": 100, "unit": "%"},
      {"measurement": "cellular multiplication after replacement of the culture medium with fresh drug-free medium", "setting": "[2]; medium replaced at 22 days", "result": "does not lead to any cellular multiplication"},
      {"measurement": "toxicity", "setting": "skeletal muscle cells; ethanolic form", "result": "not toxic"},
      {"measurement": "toxicity", "setting": "kidney cells; ethanolic form", "result": "not toxic"}
    ]}
  ]
}
